Assay results taken from ChEMBL document CHEMBL1131770, “Multiple parallel synthesis of N,N-dialkyldipeptidylamines as N-type calcium channel blockers” (Bioorg Med Chem Lett, 1999).

biological target: Voltage-dependent N-type calcium channel subunit alpha-1B (Homo sapiens, UniProt Q00975); test: In vitro antagonism of N-type voltage sensitive calcium channel in IMR-32 assay using fluorescent [Ca2+] indicator […] in the presence of 5 uM nitrendipine; assay type: functional
Sequence (Q00975 whole entry): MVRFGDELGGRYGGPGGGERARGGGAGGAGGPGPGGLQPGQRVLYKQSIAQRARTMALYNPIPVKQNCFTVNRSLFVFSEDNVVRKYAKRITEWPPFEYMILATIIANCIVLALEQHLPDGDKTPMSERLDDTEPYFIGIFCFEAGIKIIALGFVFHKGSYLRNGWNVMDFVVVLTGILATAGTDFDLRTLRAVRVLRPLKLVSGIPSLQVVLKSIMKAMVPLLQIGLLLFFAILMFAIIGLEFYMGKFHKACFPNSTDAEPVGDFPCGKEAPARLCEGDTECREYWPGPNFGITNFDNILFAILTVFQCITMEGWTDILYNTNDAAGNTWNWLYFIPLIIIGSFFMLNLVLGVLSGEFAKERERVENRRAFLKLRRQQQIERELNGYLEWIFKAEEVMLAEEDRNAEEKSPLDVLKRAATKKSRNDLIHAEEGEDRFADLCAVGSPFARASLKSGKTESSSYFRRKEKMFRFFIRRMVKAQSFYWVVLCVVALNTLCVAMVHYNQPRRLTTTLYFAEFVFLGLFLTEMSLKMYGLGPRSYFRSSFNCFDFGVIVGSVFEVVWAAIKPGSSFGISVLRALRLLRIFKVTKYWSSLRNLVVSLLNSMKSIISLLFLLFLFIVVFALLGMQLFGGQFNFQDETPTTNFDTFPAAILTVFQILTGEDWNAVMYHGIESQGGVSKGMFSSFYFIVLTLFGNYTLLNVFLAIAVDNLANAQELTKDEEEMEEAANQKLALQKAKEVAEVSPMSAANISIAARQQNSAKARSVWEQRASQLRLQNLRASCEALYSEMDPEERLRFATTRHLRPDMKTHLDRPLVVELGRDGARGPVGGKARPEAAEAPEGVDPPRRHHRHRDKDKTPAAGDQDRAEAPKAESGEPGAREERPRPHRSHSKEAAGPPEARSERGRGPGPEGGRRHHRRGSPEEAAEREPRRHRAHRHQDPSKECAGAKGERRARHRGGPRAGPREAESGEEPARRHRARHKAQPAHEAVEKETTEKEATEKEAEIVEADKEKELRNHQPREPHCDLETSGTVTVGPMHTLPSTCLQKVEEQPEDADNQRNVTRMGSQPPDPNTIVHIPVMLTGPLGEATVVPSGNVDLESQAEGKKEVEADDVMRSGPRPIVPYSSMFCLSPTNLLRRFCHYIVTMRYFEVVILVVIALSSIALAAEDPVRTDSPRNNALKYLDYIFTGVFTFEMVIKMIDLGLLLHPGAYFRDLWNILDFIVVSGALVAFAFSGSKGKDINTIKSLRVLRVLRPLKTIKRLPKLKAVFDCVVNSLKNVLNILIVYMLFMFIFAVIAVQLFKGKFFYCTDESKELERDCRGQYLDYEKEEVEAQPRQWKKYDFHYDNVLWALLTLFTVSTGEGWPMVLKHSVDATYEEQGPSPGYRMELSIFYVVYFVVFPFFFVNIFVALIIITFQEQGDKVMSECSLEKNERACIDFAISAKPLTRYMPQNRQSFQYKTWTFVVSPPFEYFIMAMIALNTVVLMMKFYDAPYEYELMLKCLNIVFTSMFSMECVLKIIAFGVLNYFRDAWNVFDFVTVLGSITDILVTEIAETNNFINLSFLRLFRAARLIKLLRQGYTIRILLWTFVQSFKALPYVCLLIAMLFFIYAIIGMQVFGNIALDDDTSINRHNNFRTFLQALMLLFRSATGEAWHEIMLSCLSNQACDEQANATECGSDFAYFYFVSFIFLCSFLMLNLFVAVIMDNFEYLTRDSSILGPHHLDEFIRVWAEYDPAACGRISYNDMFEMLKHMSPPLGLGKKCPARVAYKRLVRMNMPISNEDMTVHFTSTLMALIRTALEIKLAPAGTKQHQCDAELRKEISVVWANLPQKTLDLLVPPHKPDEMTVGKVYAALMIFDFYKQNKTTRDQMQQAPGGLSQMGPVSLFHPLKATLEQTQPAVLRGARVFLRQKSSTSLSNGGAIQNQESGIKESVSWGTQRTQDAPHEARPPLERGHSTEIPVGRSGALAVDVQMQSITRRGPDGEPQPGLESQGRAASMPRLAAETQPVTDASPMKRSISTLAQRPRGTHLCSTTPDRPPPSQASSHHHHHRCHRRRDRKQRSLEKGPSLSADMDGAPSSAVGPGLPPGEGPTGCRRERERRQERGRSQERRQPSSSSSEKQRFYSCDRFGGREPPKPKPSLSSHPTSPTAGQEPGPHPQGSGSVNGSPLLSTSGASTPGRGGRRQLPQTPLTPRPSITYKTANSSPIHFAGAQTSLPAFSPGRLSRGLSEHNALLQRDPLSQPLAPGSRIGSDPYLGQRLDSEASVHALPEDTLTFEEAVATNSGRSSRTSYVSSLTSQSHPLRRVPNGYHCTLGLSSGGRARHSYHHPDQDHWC

| IC50 [nM] | SMILES |
| --- | --- |
| 1200 | CC(C)C[C@@H](C(=O)N[C@@H](Cc1ccc(OCc2ccccc2)cc1)C(=O)N1CCN(C)CC1)N(C)CC1CCCCC1 |
| 320 | CC(C)CCN(C)[C@@H](CC(C)C)C(=O)N[C@@H](Cc1ccc(OCc2ccccc2)cc1)C(=O)NC(C)(C)C |
| 660 | CC(C)CCN(C)[C@@H](CC(C)C)C(=O)N[C@@H](Cc1ccc(OCc2ccccc2)cc1)C(=O)N1CCCCC1 |
| 4100 | CC(C)C[C@@H](C(=O)N[C@@H](Cc1ccc(OCc2ccccc2)cc1)C(=O)NCCN1CCCCC1)N(C)C |
| 40 | CC(C)C[C@@H](C(=O)N[C@@H](Cc1ccc(OCc2ccccc2)cc1)C(=O)NC(C)(C)C)N(C)Cc1ccc(C(C)(C)C)cc1 |
| 1100 | CC(C)CCN(C)[C@@H](CC(C)C)C(=O)N[C@@H](Cc1ccc(OCc2ccccc2)cc1)C(=O)NCCN1CCCCC1 |
| 90 | CC(C)C[C@@H](C(=O)N[C@@H](Cc1ccc(OCc2ccccc2)cc1)C(=O)N1CCCCC1)N(C)Cc1ccc(C(C)(C)C)cc1 |
| 320 | CC(C)C[C@@H](C(=O)N[C@@H](Cc1ccc(OCc2ccccc2)cc1)C(=O)N1CCCCC1)N(C)CC1CCCCC1 |
| 500 | CC(C)C[C@@H](C(=O)N[C@@H](Cc1ccc(OCc2ccccc2)cc1)C(=O)N1CCN(Cc2ccccc2)CC1)N(C)Cc1ccc(C(C)(C)C)cc1 |
| 1900 | CC(C)C[C@@H](C(=O)N[C@@H](Cc1ccc(OCc2ccccc2)cc1)C(=O)N1CCCCC1)N(C)C |
| 1200 | CC(C)CCN(C)[C@@H](CC(C)C)C(=O)N[C@@H](Cc1ccc(OCc2ccccc2)cc1)C(=O)N1CCN(C)CC1 |
| 1200 | CC(C)C[C@@H](C(=O)N[C@@H](Cc1ccc(OCc2ccccc2)cc1)C(=O)N1CCN(Cc2ccccc2)CC1)N(C)C |
| 880 | CC(C)C[C@@H](C(=O)N[C@@H](Cc1ccc(OCc2ccccc2)cc1)C(=O)NCCN1CCCCC1)N(C)C1CCCCC1 |
| 310 | CC(C)C[C@@H](C(=O)N[C@@H](Cc1ccc(OCc2ccccc2)cc1)C(=O)NC1CCN(Cc2ccccc2)CC1)N(C)CC1CCCCC1 |
| 1000 | CC(C)C[C@@H](C(=O)N[C@@H](Cc1ccc(OCc2ccccc2)cc1)C(=O)NCCN1CCCCC1)N(C)CC1CCCCC1 |
| 200 | CC(C)C[C@@H](C(=O)N[C@@H](Cc1ccc(OCc2ccccc2)cc1)C(=O)NC(C)(C)C)N(C)C1CCCCC1 |
| 500 | CC(C)C[C@@H](C(=O)N[C@@H](Cc1ccc(OCc2ccccc2)cc1)C(=O)NC(C)(C)C)N(C)CC1CCCCC1 |
| 1300 | CC(C)C[C@@H](C(=O)N[C@@H](Cc1ccc(OCc2ccccc2)cc1)C(=O)NC1CCN(Cc2ccccc2)CC1)N(C)C1CCCCC1 |
| 760 | CC(C)C[C@@H](C(=O)N[C@@H](Cc1ccc(OCc2ccccc2)cc1)C(=O)N1CCN(Cc2ccccc2)CC1)N(C)C1CCCCC1 |
| 2800 | CC(C)C[C@@H](C(=O)N[C@@H](Cc1ccc(OCc2ccccc2)cc1)C(=O)NC(C)(C)C)N(C)C |
| 270 | CC(C)C[C@@H](C(=O)N[C@@H](Cc1ccc(OCc2ccccc2)cc1)C(=O)NC1CCN(Cc2ccccc2)CC1)N(C)Cc1ccc(C(C)(C)C)cc1 |
| 590 | CC(C)CCN(C)[C@@H](CC(C)C)C(=O)N[C@@H](Cc1ccc(OCc2ccccc2)cc1)C(=O)N1CCN(Cc2ccccc2)CC1 |
| 310 | CC(C)C[C@@H](C(=O)N[C@@H](Cc1ccc(OCc2ccccc2)cc1)C(=O)NCCN1CCCCC1)N(C)Cc1ccc(C(C)(C)C)cc1 |
| 880 | CC(C)CCN(C)[C@@H](CC(C)C)C(=O)N[C@@H](Cc1ccc(OCc2ccccc2)cc1)C(=O)NC1CCN(Cc2ccccc2)CC1 |
| 440 | CC(C)C[C@@H](C(=O)N[C@@H](Cc1ccc(OCc2ccccc2)cc1)C(=O)N1CCN(C)CC1)N(C)Cc1ccc(C(C)(C)C)cc1 |
| 420 | CC(C)C[C@@H](C(=O)N[C@@H](Cc1ccc(OCc2ccccc2)cc1)C(=O)N1CCN(Cc2ccccc2)CC1)N(C)CC1CCCCC1 |
| 380 | CC(C)C[C@@H](C(=O)N[C@@H](Cc1ccc(OCc2ccccc2)cc1)C(=O)N1CCCCC1)N(C)C1CCCCC1 |
| 5600 | CC(C)C[C@@H](C(=O)N[C@@H](Cc1ccc(OCc2ccccc2)cc1)C(=O)N1CCN(C)CC1)N(C)C1CCCCC1 |
| 13000 | CC(C)C[C@@H](C(=O)N[C@@H](Cc1ccc(OCc2ccccc2)cc1)C(=O)N1CCN(C)CC1)N(C)C |
| 2600 | CC(C)C[C@@H](C(=O)N[C@@H](Cc1ccc(OCc2ccccc2)cc1)C(=O)NC1CCN(Cc2ccccc2)CC1)N(C)C |
